Experimental data: ChEMBL document CHEMBL3832087, “DailyMed|setid=a60f39f6-d590-4b00-8751-7f12b7ec5385 | ZAFIRLUKAST- zafirlukast tablet, film coated|American Health Packaging”
“And” between values parts separate entries of the source, which are not always exact repeats. Identical values can stand only once.

Tests used:
Type in all cases: ADME, organism-based
[1] = (§1) Evaluation of pharmacokinetic parameters for Zafirlukast following single oral administration to healthy boys and girls.; design: dose 20 mg, route oral; settings: both, human, in vivo, dose 20 mg, dosed compound id 45, dosed compound name ZAFIRLUKAST, regimen Single dose, route oral, tissue Plasma
[2] = tested on: Homo sapiens; test: as §1; design: dose 20 mg, route oral; settings: in vivo, po, dosed compound id 45, dosed compound name ZAFIRLUKAST, regimen Single dose, tissue Plasma; for CL/F / Tmax: dose 20 mg
[3] = (§2) Evaluation of pharmacokinetic parameters for Zafirlukast following oral administration of Zafirlukast tablets in subjects of varying health status.; settings: human, dosed compound id 45, dosed compound name ZAFIRLUKAST, tissue Plasma
[4] = tested on: Homo sapiens; test: as §2; settings: in vivo, po, dosed compound id 45, dosed compound name ZAFIRLUKAST, gender male and female, tissue Plasma

Question: Which results are given for `COc1cc(C(=O)NS(=O)(=O)c2ccccc2C)ccc1Cc1cn(C)c2ccc(NC(=O)OC3CCCC3)cc12` [ZAFIRLUKAST]?
Answer: Tmax ([1]; gender male and female): 2.1 h; half-life [1]: 798 min; CL/F ([2]; gender male and female): 9.2 L/h and 11.4 L/h; Tmax ([2]; gender male and female): 2.5 h; CL/F ([2]; gender male): 19.4 L/h; Tmax ([2]; gender male): 2 h; AUC ([2]; gender male and female): 2458 ng·h/mL and 2027 ng·h/mL; Cmax ([2]; gender male and female): 756 ng/mL and 601 ng/mL; AUC ([2]; gender male): 1137 ng·h/mL; Cmax ([2]; gender male): 326 ng/mL; fraction unbound ([3]; read-out: Protein binding): 0.01; half-life ([3]; in vivo, gender male and female): 600 min; Tmax ([3]; in vivo): 3 h; Vd/F ([3]; in vivo, read-out: Vss/F): 70 L; t1/2 [4]: 8 h and 16 h and 10 h
